In experiment [1] the target is T1, Ferrochelatase, mitochondrial (Homo sapiens, UniProt P22830).
T1 sequence (P22830 whole entry): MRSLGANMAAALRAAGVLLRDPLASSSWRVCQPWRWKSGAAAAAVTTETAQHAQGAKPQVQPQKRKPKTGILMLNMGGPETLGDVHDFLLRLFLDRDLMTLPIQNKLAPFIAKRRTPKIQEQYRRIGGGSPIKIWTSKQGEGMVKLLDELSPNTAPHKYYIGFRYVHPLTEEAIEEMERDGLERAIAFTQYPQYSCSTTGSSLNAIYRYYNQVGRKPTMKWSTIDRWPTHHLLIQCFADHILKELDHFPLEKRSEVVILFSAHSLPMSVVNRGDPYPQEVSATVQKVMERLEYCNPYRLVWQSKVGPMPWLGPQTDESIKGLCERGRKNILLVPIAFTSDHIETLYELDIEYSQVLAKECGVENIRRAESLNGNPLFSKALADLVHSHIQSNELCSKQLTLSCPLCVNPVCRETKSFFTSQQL

For experiment [2], the target named is T2, Dual specificity mitogen-activated protein kinase kinase 6 (Homo sapiens, UniProt P52564).
T2 sequence (P52564 whole entry): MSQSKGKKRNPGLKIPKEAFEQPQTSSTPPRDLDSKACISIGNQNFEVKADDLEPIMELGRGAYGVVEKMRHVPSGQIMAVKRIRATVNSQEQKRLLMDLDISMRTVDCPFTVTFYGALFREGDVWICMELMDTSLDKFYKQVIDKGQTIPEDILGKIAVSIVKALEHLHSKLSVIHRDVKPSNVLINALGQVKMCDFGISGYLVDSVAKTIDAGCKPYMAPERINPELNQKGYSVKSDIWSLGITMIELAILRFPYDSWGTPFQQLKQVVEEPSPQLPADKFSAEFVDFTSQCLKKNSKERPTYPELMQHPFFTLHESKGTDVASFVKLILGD

In experiment [3] the target is Receptor-interacting serine/threonine-protein kinase 3 (Homo sapiens, UniProt Q9Y572).
Experiment [4] addresses Mitogen-activated protein kinase 8 (Homo sapiens, UniProt P45983).
For a further experiment, the target named is T3, Ephrin type-B receptor 4 (Homo sapiens, UniProt P54760).
T3 sequence (P54760 whole entry): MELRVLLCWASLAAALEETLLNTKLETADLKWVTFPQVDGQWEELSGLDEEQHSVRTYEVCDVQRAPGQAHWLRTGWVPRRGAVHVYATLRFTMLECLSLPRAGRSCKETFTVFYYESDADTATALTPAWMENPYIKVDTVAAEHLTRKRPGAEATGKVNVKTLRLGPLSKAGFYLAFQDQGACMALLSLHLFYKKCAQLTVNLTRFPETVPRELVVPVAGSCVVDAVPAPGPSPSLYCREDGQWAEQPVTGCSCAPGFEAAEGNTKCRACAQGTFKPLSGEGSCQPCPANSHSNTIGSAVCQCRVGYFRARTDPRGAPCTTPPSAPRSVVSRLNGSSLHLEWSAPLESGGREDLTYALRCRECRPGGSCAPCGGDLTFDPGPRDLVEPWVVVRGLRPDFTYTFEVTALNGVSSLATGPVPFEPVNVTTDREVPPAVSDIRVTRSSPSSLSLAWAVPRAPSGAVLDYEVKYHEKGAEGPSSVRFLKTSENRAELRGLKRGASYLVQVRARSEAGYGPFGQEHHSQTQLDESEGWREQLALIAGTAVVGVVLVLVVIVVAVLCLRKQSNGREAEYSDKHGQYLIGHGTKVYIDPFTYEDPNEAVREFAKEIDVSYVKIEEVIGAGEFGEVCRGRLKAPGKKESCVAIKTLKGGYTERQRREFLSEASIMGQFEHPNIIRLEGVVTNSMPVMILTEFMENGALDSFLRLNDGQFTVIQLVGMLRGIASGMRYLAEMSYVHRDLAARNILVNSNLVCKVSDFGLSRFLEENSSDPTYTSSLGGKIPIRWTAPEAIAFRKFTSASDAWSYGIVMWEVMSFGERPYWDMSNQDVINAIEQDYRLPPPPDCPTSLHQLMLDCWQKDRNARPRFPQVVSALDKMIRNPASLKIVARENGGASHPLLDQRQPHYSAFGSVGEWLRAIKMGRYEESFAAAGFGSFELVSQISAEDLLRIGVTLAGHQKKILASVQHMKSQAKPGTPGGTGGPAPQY

Experiment [5] deals with Serine/threonine-protein kinase/endoribonuclease IRE2 (Homo sapiens, UniProt Q76MJ5).
The target of experiment [6] is DNA topoisomerase 2-alpha (Homo sapiens, UniProt P11388).
Experiment [7] addresses Protein kinase C delta type (Homo sapiens, UniProt Q05655).
Experiment [8] deals with Tyrosine-protein kinase ABL2 (Homo sapiens, UniProt P42684).
For experiment [9], the target named is T4, Discoidin domain-containing receptor 2 (Homo sapiens, UniProt Q16832).
T4 sequence (Q16832 whole entry): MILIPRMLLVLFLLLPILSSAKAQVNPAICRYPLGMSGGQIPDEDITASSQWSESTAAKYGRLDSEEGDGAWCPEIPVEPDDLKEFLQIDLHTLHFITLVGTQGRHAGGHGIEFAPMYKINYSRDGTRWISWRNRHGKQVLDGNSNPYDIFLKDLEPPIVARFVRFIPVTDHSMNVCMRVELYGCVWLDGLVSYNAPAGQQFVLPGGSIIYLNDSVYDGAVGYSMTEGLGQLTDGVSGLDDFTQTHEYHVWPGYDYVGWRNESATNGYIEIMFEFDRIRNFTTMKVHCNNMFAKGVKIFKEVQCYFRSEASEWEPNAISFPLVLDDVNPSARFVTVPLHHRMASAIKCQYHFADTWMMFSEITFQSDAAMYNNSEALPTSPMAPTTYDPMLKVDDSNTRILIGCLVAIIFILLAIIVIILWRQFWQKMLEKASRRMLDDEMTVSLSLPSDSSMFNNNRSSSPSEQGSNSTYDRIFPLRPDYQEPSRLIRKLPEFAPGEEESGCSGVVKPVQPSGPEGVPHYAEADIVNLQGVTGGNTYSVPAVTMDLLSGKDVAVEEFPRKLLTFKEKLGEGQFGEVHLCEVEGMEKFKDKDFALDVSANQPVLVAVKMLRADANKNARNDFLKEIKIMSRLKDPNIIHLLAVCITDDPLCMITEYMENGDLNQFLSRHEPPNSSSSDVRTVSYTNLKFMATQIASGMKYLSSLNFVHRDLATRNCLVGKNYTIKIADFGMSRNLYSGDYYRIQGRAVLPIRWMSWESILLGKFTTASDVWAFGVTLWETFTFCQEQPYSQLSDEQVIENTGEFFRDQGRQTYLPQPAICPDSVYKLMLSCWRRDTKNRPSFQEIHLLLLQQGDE

For 8 molecules, Kd results are on record in ChEMBL document CHEMBL3991601, “The target landscape of clinical kinase drugs” (Science, 2017).

Each structure is given as a SMILES string. The source made the active and inactive calls. Cut-off read from the data, not from the text of the source, for most assays here: actives have a measured Kd and inactives only a lower limit.
Note: in the data inactive means no Kd found up to 30 µM.

Chain of Serine/threonine-protein kinase/endoribonuclease IRE2 (Q76MJ5 whole entry): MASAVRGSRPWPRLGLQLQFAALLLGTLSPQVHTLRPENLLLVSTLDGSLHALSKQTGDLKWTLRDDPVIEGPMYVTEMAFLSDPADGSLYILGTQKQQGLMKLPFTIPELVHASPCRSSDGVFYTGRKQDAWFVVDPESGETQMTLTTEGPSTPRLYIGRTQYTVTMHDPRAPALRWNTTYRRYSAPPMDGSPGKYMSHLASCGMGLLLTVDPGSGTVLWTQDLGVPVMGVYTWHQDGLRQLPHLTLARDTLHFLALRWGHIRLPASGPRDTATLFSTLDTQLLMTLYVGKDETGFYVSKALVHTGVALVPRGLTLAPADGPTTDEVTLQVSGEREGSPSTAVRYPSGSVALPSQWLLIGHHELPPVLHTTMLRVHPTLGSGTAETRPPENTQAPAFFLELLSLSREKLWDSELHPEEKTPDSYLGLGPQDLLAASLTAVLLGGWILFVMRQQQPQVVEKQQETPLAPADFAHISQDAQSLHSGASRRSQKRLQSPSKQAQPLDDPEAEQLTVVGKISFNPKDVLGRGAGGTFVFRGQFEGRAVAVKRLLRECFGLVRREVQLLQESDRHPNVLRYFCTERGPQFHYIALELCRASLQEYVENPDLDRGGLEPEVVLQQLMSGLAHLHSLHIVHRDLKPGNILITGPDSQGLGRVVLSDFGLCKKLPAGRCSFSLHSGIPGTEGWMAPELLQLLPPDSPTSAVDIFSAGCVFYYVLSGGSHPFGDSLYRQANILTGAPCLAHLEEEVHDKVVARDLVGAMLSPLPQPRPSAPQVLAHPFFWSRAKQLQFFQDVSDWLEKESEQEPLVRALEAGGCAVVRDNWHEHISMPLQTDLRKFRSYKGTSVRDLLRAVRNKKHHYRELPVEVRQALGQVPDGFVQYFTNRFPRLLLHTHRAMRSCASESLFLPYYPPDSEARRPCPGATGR
Chain of Tyrosine-protein kinase ABL2 (P42684 whole entry, the tested form may be a part): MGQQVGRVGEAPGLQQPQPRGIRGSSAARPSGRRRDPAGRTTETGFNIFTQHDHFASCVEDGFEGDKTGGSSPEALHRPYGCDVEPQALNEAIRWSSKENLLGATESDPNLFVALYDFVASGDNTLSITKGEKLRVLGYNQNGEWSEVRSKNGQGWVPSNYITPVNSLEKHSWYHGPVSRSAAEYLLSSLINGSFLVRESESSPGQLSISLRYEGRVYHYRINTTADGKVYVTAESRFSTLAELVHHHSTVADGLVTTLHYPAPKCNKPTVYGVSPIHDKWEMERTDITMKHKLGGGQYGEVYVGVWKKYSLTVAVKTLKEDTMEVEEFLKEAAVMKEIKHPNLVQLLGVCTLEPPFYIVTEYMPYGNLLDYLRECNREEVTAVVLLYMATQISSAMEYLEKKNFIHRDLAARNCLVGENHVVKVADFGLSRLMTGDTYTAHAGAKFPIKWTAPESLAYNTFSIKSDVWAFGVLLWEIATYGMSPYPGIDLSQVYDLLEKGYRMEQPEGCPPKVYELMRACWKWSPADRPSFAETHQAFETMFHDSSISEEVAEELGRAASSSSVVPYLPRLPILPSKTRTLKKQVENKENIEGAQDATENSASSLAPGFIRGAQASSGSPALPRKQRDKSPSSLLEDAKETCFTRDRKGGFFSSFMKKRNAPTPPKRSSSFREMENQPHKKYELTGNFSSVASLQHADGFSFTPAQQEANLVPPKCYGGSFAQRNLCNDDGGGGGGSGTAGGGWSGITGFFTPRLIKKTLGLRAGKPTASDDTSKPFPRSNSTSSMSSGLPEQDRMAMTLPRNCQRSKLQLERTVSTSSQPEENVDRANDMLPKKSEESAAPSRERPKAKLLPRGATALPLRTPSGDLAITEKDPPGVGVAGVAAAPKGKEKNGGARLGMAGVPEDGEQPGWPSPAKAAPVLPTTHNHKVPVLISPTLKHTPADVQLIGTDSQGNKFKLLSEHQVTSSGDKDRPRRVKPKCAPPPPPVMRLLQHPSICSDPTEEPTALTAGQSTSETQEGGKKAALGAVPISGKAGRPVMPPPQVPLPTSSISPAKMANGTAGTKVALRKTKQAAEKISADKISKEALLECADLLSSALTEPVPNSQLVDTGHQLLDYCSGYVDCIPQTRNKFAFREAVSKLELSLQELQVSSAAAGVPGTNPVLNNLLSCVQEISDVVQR
Chain of Mitogen-activated protein kinase 8 (P45983 whole entry): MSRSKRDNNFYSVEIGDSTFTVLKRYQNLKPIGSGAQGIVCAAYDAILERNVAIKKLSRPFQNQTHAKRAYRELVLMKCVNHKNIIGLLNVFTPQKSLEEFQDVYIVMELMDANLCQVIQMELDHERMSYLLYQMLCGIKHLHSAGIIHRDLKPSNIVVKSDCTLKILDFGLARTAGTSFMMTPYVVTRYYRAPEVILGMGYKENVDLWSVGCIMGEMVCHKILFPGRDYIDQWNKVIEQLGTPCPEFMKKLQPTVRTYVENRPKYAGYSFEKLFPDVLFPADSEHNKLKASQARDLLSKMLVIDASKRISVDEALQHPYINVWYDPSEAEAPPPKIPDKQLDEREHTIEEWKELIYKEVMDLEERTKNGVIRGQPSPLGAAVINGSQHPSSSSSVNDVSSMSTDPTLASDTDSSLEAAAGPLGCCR
Chain of Protein kinase C delta type (Q05655 whole entry): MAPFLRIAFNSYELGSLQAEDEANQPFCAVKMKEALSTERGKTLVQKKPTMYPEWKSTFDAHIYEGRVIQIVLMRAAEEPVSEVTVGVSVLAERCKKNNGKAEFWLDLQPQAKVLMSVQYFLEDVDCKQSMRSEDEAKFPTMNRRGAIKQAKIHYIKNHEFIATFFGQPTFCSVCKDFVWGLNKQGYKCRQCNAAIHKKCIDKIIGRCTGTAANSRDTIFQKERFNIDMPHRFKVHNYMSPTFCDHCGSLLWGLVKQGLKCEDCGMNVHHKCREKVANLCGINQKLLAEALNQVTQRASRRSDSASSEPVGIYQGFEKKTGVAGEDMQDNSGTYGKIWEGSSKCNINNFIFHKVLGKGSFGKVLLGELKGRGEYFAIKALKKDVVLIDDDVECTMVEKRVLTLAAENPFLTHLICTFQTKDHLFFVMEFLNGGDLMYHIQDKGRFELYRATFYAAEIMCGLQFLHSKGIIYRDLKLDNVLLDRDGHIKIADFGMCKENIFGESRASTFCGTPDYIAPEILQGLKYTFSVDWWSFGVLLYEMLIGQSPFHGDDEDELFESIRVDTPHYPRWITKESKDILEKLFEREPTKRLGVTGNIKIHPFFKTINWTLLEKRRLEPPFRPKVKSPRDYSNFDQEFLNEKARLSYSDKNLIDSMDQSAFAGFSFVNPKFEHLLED
Chain of DNA topoisomerase 2-alpha (P11388 whole entry): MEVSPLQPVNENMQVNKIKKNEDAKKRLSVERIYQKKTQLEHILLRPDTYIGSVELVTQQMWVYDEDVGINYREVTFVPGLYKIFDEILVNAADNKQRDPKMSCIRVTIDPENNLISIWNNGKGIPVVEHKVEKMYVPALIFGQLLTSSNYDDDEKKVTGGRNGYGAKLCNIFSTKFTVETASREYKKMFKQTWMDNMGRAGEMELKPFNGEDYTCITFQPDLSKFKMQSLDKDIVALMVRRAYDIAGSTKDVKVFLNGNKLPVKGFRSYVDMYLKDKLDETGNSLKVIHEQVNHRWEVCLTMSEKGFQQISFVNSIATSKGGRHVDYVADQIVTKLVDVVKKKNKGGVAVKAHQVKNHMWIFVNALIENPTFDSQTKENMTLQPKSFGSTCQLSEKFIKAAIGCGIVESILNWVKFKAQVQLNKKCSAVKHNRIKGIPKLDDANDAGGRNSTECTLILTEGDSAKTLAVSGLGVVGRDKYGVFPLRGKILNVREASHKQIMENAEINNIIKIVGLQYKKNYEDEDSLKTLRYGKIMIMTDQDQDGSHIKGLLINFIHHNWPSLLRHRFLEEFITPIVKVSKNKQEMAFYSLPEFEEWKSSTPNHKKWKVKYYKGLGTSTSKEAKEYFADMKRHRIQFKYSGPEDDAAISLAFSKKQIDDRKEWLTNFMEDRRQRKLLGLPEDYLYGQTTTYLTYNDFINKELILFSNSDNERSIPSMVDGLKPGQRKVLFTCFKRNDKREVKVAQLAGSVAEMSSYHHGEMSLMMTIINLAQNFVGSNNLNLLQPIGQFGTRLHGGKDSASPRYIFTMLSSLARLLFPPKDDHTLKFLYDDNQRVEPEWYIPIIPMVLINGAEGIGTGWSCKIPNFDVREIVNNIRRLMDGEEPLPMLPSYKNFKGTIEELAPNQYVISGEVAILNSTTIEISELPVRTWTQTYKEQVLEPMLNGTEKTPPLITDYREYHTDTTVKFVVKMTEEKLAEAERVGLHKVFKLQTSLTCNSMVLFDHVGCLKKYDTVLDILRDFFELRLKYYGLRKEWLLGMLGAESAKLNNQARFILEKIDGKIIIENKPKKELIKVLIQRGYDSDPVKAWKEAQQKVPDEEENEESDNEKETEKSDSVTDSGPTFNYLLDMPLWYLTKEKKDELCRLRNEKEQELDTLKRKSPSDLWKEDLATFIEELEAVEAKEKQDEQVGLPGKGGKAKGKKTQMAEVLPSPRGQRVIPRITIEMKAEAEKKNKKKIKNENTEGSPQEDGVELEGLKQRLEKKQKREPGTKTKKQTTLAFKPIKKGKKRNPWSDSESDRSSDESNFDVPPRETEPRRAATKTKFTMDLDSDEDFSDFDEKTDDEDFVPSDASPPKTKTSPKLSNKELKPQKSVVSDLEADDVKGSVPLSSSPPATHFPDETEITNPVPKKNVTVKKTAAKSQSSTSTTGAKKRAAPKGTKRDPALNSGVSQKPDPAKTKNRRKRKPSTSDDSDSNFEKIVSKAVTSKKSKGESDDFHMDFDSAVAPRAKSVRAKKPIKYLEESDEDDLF

In the case of `C[C@@H](Nc1cc(F)cc(F)c1)c1cc(C(=O)N(C)C)cc2c(=O)cc(N3CCOCC3)oc12` [AZD-8186], the Kd in experiment [1] was > 30 µM (inactive); in experiment [2], > 30 µM (inactive); in experiment [3] it was > 30 µM (inactive); in experiment [4] it was > 30 µM (inactive); at Ephrin type-B receptor 4, > 30 µM (inactive); in experiment [5], 1.5 µM. The Kd in experiment [6], in experiment [7], in experiment [8] and in [9] was > 30 µM (inactive) throughout.
With `C1=C/COCc2cc(ccc2OCCN2CCCC2)Nc2nccc(n2)-c2cccc(c2)COC/1` [PACRITINIB], the Kd is 67.9 µM (active) in experiment [1]; > 30 µM (inactive) in [2]; > 30 µM (inactive) in [3]; 1.96 µM (active) in experiment [4]; > 30 µM (inactive) at Ephrin type-B receptor 4; > 30 µM (inactive) in experiment [5]. The Kd in [7], in experiment [8] and in experiment [9] was > 30 µM (inactive) in each case.
For `COc1cc2nccc(Oc3ccc(NC(=O)Nc4cc(C)on4)c(Cl)c3)c2cc1OC` [TIVOZANIB], the Kd in [1] was > 30 µM (inactive); in experiment [2] it was > 30 µM (inactive); in [3], 1.35 µM (active); in experiment [4] it was > 30 µM (inactive); in experiment [5], > 30 µM (inactive); in experiment [6] it was > 30 µM (inactive). In addition, the Kd in [7] was > 30 µM (inactive); in experiment [8], 0.302 µM (active); in experiment [9], 0.592 µM (active).
Consider `COCCNCc1ccc(-c2cc3nccc(Oc4ccc(NC(=S)NC(=O)Cc5ccc(F)cc5)cc4F)c3s2)nc1` [GLESATINIB], for which the Kd (in [1]; in experiment [2]; in experiment [3]; in [4]; on Ephrin type-B receptor 4; in experiment [5]) was > 30 µM (inactive) in each case. Further, the Kd is > 30 µM (inactive) in experiment [6], > 30 µM (inactive) in experiment [7] and 1.49 µM (active) in experiment [9].
In the case of `C[C@@H]1CN(Cc2ccc(F)cc2)[C@@H](C)CN1C(=O)c1cc2c(C(=O)C(=O)N(C)C)cn(C)c2cc1Cl` [TALMAPIMOD], the Kd (in [1]; in [2]; in [3]; in experiment [4]; at Ephrin type-B receptor 4; in experiment [5]) was > 30 µM (inactive) in each case. For the same molecule, the Kd in experiment [7], in experiment [8] and in experiment [9] was > 30 µM (inactive) each time.
In the case of `Cn1cc(-c2ccc(F)c(C(F)(F)F)c2)nc1C1CCN(c2ncnc3[nH]ncc23)CC1` [LY-2584702], the Kd (in experiment [1]; in experiment [2]; in [3]; in [4]; at Ephrin type-B receptor 4; in experiment [5]) was > 30 µM (inactive) each time. For the same molecule, the Kd in experiment [7], in experiment [8] and in experiment [9] was > 30 µM (inactive) throughout.
`Cc1cc2c(F)c(Oc3ncnn4cc(OC[C@@H](C)OC(=O)[C@H](C)N)c(C)c34)ccc2[nH]1` [BRIVANIB ALANINATE]: the Kd (in experiment [1]; in [2]; in experiment [3]; in experiment [4]; on Ephrin type-B receptor 4; in [5]) was > 30 µM (inactive) throughout. Moreover, the Kd in experiment [7], in experiment [8] and in [9] was > 30 µM (inactive) throughout.
`CNC(=O)c1ccc(C)c(-n2c(C)cc(OCc3ccc(F)cc3F)c(Br)c2=O)c1` [PH-797804]: the Kd (in [1]; in experiment [2]; in experiment [3]; in experiment [4]; on Ephrin type-B receptor 4; in experiment [5]) was > 30 µM (inactive) in each case. Besides, the Kd in experiment [7], in experiment [8] and in [9] was > 30 µM (inactive) throughout.
